Columns and labels:
[1] = target: T1, Growth hormone secretagogue receptor type 1 (Homo sapiens, UniProt Q92847); assay: Displacement of [125I]-ghrelin from human GHS-R1a expressed in tetracycline inducible HEK293 cells after 8 hrs by liquid scintillation counting; format: cell-based; conditions: for pKi: hek293
[2] = target: T2, Muscarinic acetylcholine receptor M2 (Homo sapiens, UniProt P08172); assay: Displacement of N-methyl [3H]-scopolamine from recombinant human muscarinic acetylcholine receptor M2 expressed in CHO cells after 2 hrs by liquid scintillation counting; format: cell-based; conditions: for pKi: cho
T2 sequence (P08172 whole entry): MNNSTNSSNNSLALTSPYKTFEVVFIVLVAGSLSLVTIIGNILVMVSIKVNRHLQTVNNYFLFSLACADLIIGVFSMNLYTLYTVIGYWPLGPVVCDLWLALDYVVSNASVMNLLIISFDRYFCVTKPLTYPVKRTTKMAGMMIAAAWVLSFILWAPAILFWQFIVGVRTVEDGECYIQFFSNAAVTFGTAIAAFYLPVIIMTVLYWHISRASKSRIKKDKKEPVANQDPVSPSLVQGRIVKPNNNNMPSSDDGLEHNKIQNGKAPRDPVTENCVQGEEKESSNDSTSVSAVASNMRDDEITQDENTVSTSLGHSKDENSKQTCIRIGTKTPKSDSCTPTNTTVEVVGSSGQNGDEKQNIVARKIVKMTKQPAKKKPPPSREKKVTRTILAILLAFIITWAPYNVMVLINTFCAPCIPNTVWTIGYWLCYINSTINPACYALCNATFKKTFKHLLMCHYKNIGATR

Rattus norvegicus = assay: Ex vivo receptor occupancy of GHS-R1a in Sprague-Dawley rat hypothalamus at 10 mg/kg, po measured at 1 hr by liquid scintillation counting in presence of [His [125I]]-Ghrelin; format: functional
[3] = target: T1, Growth hormone secretagogue receptor type 1; assay: Inverse agonist activity at human GHS-R1a expressed in tetracycline inducible HEK293 cells incubated for 24 hrs prior to europium-labeled GTP addition measured after 90 mins by DELFIA assay; format: cell-based; set-up: Activity: concentration or dose not given beside the values
[4] = target: T2, Muscarinic acetylcholine receptor M2; assay: Binding affinity to muscarinic acetylcholine receptor M2 (unknown origin)
[5] = Apparent intrinsic clearance in human liver microsomes; format: ADME, Microsome; conditions: read-out: CLH(app)
human MDR1 (P-gp) = assay: Efflux ratio of permeability in MDCK cells expressing human MDR-1 gene; format: ADME, cell-based, Canis lupus familiaris; conditions: dog

T1 sequence (Q92847 whole entry): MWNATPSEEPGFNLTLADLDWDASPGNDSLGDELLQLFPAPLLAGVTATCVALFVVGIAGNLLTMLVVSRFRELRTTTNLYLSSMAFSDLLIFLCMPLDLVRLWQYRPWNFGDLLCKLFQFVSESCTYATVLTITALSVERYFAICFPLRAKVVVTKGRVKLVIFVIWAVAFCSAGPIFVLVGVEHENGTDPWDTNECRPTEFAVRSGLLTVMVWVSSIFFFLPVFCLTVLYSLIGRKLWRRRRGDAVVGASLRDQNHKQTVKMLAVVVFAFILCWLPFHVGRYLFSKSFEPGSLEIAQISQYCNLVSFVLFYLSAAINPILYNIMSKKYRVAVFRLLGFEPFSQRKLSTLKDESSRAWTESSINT

| Structure (SMILES) | Ki [2] [nM] | Occ (Rattus norvegicus) [%] | Activity [3] [%] | pKb [3] | Ki [1] [nM] | also measured |
| --- | --- | --- | --- | --- | --- | --- |
| COc1ccc(CC(=O)N2CCC3(CC2)CN(Cc2ccc(-c4ncccn4)cc2Cl)C3)cc1 | 1950 |  |  |  |  | IC50 [1]: 15.8 nM |
| CCc1ccc(CC(=O)N2CCC3(CC2)CN([C@@H]2CCc4cc(-c5ncccn5)ccc42)C3)nc1 | 28200 | 10 | 22 | 7.13 | 15.5 |  |
| COc1ccc(CC(=O)N2CCC3(CC2)CN(C2CCc4cc(-c5ncccn5)ccc42)C3)nc1 (racemic) | 1620 |  |  |  |  | IC50 [1]: 37.2 nM |
| COc1ccc(CC(=O)N2CCC3(CC2)CN(C(C)c2ccc(-c4ncccn4)cc2)C3)nc1 (configuration not stated) | 2400 |  |  |  | 1700 |  |
| COc1ccc(CC(=O)N2CCC3(CC2)CN([C@@H]2CCc4cc(-c5ncccn5)ccc42)C3)nc1 | 14500 | 45 | 42 | 7.6 | 29.5 |  |
| CCc1cnc(-c2ccc3c(c2)CC[C@H]3N2CC3(CCN(C(=O)Cc4ccc(OC)cn4)CC3)C2)nc1 |  | 64 | 29 | 7.37 |  | pKi [2]: < 4.17 |
| COc1ccc(CC(=O)N2CCC3(CC2)CN([C@@H]2CCc4cc(-n5nccn5)ccc42)C3)cc1 |  | 74 | 21 | 8.27 | 7.41 | pKi [2]: < 4.26 |
| Cc1cn2cc(CC(=O)N3CCC4(CC3)CN(Cc3ccc(-n5nccn5)cc3Cl)C4)nc2s1 |  |  |  |  |  | Ki [4]: 269 nM |
| COc1ccc(CC(=O)N2CCC3(CC2)CN([C@H]2CCc4cc(-c5ncccn5)ccc42)C3)nc1 | 407 |  |  |  |  | IC50 [1]: 1100 nM |
| COc1ccc(CC(=O)N2CCC3(CC2)CN([C@@H](C)c2ccc(-c4ncccn4)cc2)C3)nc1 | 2240 |  |  |  | 1120 |  |
| COc1ccc(CC(=O)N2CCC3(CC2)CN([C@@H]2CCc4cc(-c5ncccn5)ccc42)C3)cc1 |  | 85 |  |  |  |  |
| COc1ccc(CC(=O)N2CCC3(CC2)CN([C@@H]2CCc4cc(-c5nccs5)ccc42)C3)nc1 |  | 35 | 39 | 7.4 | 3.98 | pKi [2]: < 4.25 |
| COc1ccc(CC(=O)N2CCC3(CC2)CN([C@@H]2CCc4cc(-n5nccn5)ccc42)C3)nc1 |  | 50 | 42 | 7.57 |  | pKi [2]: < 4.42 |
| COc1ccc(CC(=O)N2CCC3(CC2)CN([C@@H](c2ccc(-c4ncccn4)cc2)C(C)C)C3)nc1 | 47.9 |  |  |  |  | pKi [1]: < 4.53 |
| COc1ccc(CC(=O)N2CCC3(CC2)CN([C@H](C)c2ccc(-c4ncccn4)cc2)C3)nc1 | 20000 |  |  |  | 25100 |  |
| Cc1ccc(CC(=O)N2CCC3(CC2)CN([C@@H]2CCc4cc(-n5nccn5)ccc42)C3)nc1 | 21900 | 23 | 40 | 7.23 |  |  |
| COc1ccc(CC(=O)N2CCC3(CC2)CN(C(c2ccc(-c4ncccn4)cc2)C(C)C)C3)nc1 (configuration not stated) | 151 |  |  |  |  | pKi [1]: < 4.52 |
| COCC(c1ccc(-c2ncccn2)cc1)N1CC2(CCN(C(=O)Cc3ccc(OC)cn3)CC2)C1 (configuration not stated) | 7080 |  |  |  | 3630 |  |
| COc1ccc(CC(=O)N2CCC3(CC2)CN([C@@H]2CCc4cc(-c5ncc(C)cn5)ccc42)C3)nc1 |  | 5 | 40 | 7.07 |  | pKi [2]: < 4.17 |
| CCc1ccc(CC(=O)N2CCC3(CC2)CN([C@@H]2CCc4cc(-n5nccn5)ccc42)C3)nc1 |  | 74 | 23 | 7.38 |  | pKi [2]: < 4.59 |
| COc1ccc(CC(=O)N2CCC3(CC2)CN([C@H]2CCc4cc(-c5nccs5)ccc42)C3)nc1 | 1550 |  |  |  | 1380 |  |
| Cc1ccc(CC(=O)N2CCC3(CC2)CN([C@@H]2CCc4cc(-c5ncccn5)ccc42)C3)nc1 |  | 0.2 | 21 | 6.98 |  | microsomal CLint [5]: 22 µL/min/mg; pKi [2]: < 4.56; efflux ratio (human MDR1 (P-gp)): 2 |
| COc1ccc(CC(=O)N2CCC3(CC2)CN([C@H](c2ccc(-c4ncccn4)cc2)C(C)C)C3)nc1 | 912 |  |  |  |  | pKi [1]: < 4.68 |
| COc1ccc(CC(=O)N2CCC3(CC2)CN(C2CCc4cc(-c5nccs5)ccc42)C3)nc1 (configuration not stated) | 871 |  |  |  |  | IC50 [1]: 30.2 nM |
